EPA's ToxValDB 9.5 (doi:10.2903/j.efsa.2014.3485)
Converted amounts (≈) assume the structure as drawn.

Columns and labels:
Rattus norvegicus = conditions: oral; for LD50: acute, mortality
Colinus virginianus = conditions: oral
Typhlodromus pyri = test: LR50; higher = less toxic; conditions: not reported; mortality
Mus musculus = conditions: developmental; development
Canidae = conditions: chronic; duration: 1 years; oral; Dog Other; histopathology: nonneoplastic
Neomysis kadiakensis = conditions: chronic/long-term; duration: 28 days; reproduction
Daphnia magna = conditions: chronic/long-term; duration: 21 days; reproduction
Apis mellifera = conditions: acute, duration: 48 hours, mortality
Hypoaspis aculeifer = conditions: chronic/long-term
[1] = reproduction developmental, diet, reproduction

| Structure (SMILES) | LD50 (Rattus norvegicus) | LC50 (Colinus virginianus; acute, diet, mortality) | LR50 (Typhlodromus pyri) | LOAEL (Mus musculus) | NOEL (Rattus norvegicus; reproduction developmental, diet, body weight) | NOAEL (Canidae) | NOEC (Neomysis kadiakensis) | NOEC (Daphnia magna) | LD50 (Apis mellifera; dermal) | LD50 (Apis mellifera; oral, unspecified) | LC50 (Oncorhynchus mykiss; acute, duration: 96 hours, mortality) | NOEC (Oncorhynchus mykiss; chronic/long-term, duration: 83 days, growth) | LC50 (Tagia sp.; acute, duration: 14 days, mortality) | NOEC (Tagia sp.; chronic/long-term, duration: 56 days, reproduction) | LD50 (Colinus virginianus; acute, mortality) | LOEL (Colinus virginianus; [1]) | NOEL (Colinus virginianus; [1]) | NOEC (Hypoaspis aculeifer) |
| --- | --- | --- | --- | --- | --- | --- | --- | --- | --- | --- | --- | --- | --- | --- | --- | --- | --- | --- |
| NC(Cc1ncn[nH]1)C(=O)O (stereo not given) [1,2,4-Triazole-3-alanine] | > 5000 mg/kg-day | > 1370 mg/kg-day |  |  |  |  |  |  |  |  |  |  |  |  |  |  |  |  |
| CC(C)(C)C(O)(CCc1ccc(Cl)cc1)Cn1cncn1 (stereo not given) [Tebuconazole] | 1700 mg/kg-day | > 703 mg/kg-day | 58 g/ha | 10 mg/kg-day | 10 mg/kg-day | 3 mg/kg-day | 0.035 mg/L | 0.01 mg/L | > 200 µg/piece | > 83 µg/piece | 4.4 µg/mL (≈ 14.3 µM) | 0.012 mg/L | 1380 mg/kg | 10 mg/kg | 1990 mg/kg-day | 12.4 mg/kg-day | 5.8 mg/kg-day | 50 mg/kg |
